System: OVCAR-5 complex spheroids with HUVEC/MSC, viability, % test/control
Assay: Anticancer human tumor OVCAR-5 cell line growth inhibition [AhR];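 also: spheroids exposed to compounds for 7 days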;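 as to viability, T/C: 100% = DMSO vehicle control wells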
Conditions: for IC50: curve of first compound; for viability, T/C: stronger effect = lower value
Procedure, shortened: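 Spheroids combined tumor cells with HUVEC endothelial cells and human MSCs as stroma. AhR antagonists were paired with standard or investigational drugs, each dosed in half-log steps down from near clinical Cmax, or from 10 microM where Cmax was unknown.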

[1] = second compound 0.1 µM, first compound 0.0316 µM
[2] = second compound 0.1 µM, first compound 0.1 µM
[3] = second compound 0.1 µM, first compound 0.316 µM
[4] = second compound 0.1 µM, first compound 1 µM
[5] = second compound 0.1 µM, first compound 3.16 µM
[6] = second compound 0.1 µM, first compound 10 µM
[7] = second compound 0.316 µM, first compound 0.0316 µM
[8] = second compound 0.316 µM, first compound 0.1 µM
[9] = second compound 0.316 µM, first compound 0.316 µM
[10] = second compound 0.316 µM, first compound 1 µM
[11] = second compound 0.316 µM, first compound 3.16 µM
[12] = second compound 0.316 µM, first compound 10 µM
[13] = second compound 1 µM, first compound 0.0316 µM
[14] = second compound 1 µM, first compound 0.1 µM
[15] = second compound 1 µM, first compound 0.316 µM
[16] = second compound 1 µM, first compound 1 µM
[17] = second compound 1 µM, first compound 3.16 µM
[18] = second compound 1 µM, first compound 10 µM
[19] = second compound 3.16 µM, first compound 0.0316 µM
[20] = second compound 3.16 µM, first compound 0.1 µM
[21] = second compound 3.16 µM, first compound 0.316 µM
[22] = second compound 3.16 µM, first compound 1 µM
[23] = second compound 3.16 µM, first compound 3.16 µM
[24] = second compound 3.16 µM, first compound 10 µM
[25] = second compound 10 µM, first compound 0.0316 µM
[26] = second compound 10 µM, first compound 0.1 µM
[27] = second compound 10 µM, first compound 0.316 µM
[28] = second compound 10 µM, first compound 1 µM
[29] = second compound 10 µM, first compound 3.16 µM
[30] = second compound 10 µM, first compound 10 µM

| Compound | IC50 (second compound 0.1 µM) [µM] | IC50 (second compound 0.316 µM) [µM] | IC50 (second compound 1 µM) [µM] | IC50 (second compound 3.16 µM) [µM] | IC50 (second compound 10 µM) [µM] | viability, T/C [1] [%] | viability, T/C [2] [%] | viability, T/C [3] [%] | viability, T/C [4] [%] | viability, T/C [5] [%] | viability, T/C [6] [%] | viability, T/C [7] [%] | viability, T/C [8] [%] | viability, T/C [9] [%] | viability, T/C [10] [%] | viability, T/C [11] [%] | viability, T/C [12] [%] | viability, T/C [13] [%] | viability, T/C [14] [%] | viability, T/C [15] [%] | also measured |
| --- | --- | --- | --- | --- | --- | --- | --- | --- | --- | --- | --- | --- | --- | --- | --- | --- | --- | --- | --- | --- | --- |
| CC(C)c1c(-c2ccccc2)nc2c(C#N)c[nH]n2c1=O + CC(CO)NC(=O)c1cc(-c2ccc(Cl)cc2)nn(-c2cnn(C)c2)c1=O | > 10 | > 10 | > 10 | > 10 | > 10 | 117 | 111 | 112 | 115 | 114 | 116 | 107 | 117 | 114 | 115 | 116 | 119 | 114 | 121 | 119 | viability, T/C [16]: 116%; viability, T/C [17]: 117%; viability, T/C [18]: 121%; viability, T/C [19]: 99%; viability, T/C [20]: 108%; viability, T/C [21]: 107%; viability, T/C [22]: 105%; viability, T/C [23]: 111%; viability, T/C [24]: 111%; viability, T/C [25]: 101%; viability, T/C [26]: 105%; viability, T/C [27]: 100%; viability, T/C [28]: 101%; viability, T/C [29]: 103%; viability, T/C [30]: 104% |
| O=C(C=Cc1cccc(S(=O)(=O)Nc2ccccc2)c1)NO + Cc1ccccc1N=Nc1ccc(NC(=O)c2ccnn2C)c(C)c1 | 1.1 | 1.08 | 1.18 | 1.03 | 1.06 | 100 | 89.7 | 76.1 | 53 | 24.8 | 5.54 | 101 | 97.2 | 77.2 | 54.2 | 21.3 | 5.42 | 103 | 97.4 | 84.8 | viability, T/C [16]: 54.1%; viability, T/C [17]: 22.6%; viability, T/C [18]: 5.11%; viability, T/C [19]: 103%; viability, T/C [20]: 99.3%; viability, T/C [21]: 81%; viability, T/C [22]: 50.2%; viability, T/C [23]: 21.6%; viability, T/C [24]: 5.09%; viability, T/C [25]: 93.4%; viability, T/C [26]: 96.2%; viability, T/C [27]: 76.2%; viability, T/C [28]: 52%; viability, T/C [29]: 22.3%; viability, T/C [30]: 5.86% |
| Nc1ccn(C2OC(CO)C(O)C2(F)F)c(=O)n1 (stereo not given) + CC(CO)NC(=O)c1cc(-c2ccc(Cl)cc2)nn(-c2cnn(C)c2)c1=O | < 0.0316 | < 0.0316 | < 0.0316 | < 0.0316 | < 0.0316 | 34.6 | 32.1 | 28.1 | 29.9 | 30.9 | 29.4 | 32.9 | 29.8 | 28.9 | 28.5 | 31.5 | 30.2 | 36.1 | 32.4 | 29.6 | viability, T/C [16]: 30.4%; viability, T/C [17]: 31.3%; viability, T/C [18]: 30.1%; viability, T/C [19]: 37%; viability, T/C [20]: 32.3%; viability, T/C [21]: 29.6%; viability, T/C [22]: 28.9%; viability, T/C [23]: 28.7%; viability, T/C [24]: 29.6%; viability, T/C [25]: 39.6%; viability, T/C [26]: 33.9%; viability, T/C [27]: 30.9%; viability, T/C [28]: 31.2%; viability, T/C [29]: 32.8%; viability, T/C [30]: 33.8% |
| O=C(c1cc(Cc2n[nH]c(=O)c3ccccc23)ccc1F)N1CCN(C(=O)C2CC2)CC1 + CC(CO)NC(=O)c1cc(-c2ccc(Cl)cc2)nn(-c2cnn(C)c2)c1=O | > 10 | > 10 | > 10 | > 10 | > 10 | 112 | 106 | 107 | 102 | 102 | 98.3 | 111 | 112 | 108 | 107 | 106 | 102 | 109 | 114 | 115 | viability, T/C [16]: 112%; viability, T/C [17]: 113%; viability, T/C [18]: 107%; viability, T/C [19]: 104%; viability, T/C [20]: 104%; viability, T/C [21]: 102%; viability, T/C [22]: 101%; viability, T/C [23]: 97.5%; viability, T/C [24]: 94.8%; viability, T/C [25]: 99.4%; viability, T/C [26]: 101%; viability, T/C [27]: 96.6%; viability, T/C [28]: 99.4%; viability, T/C [29]: 94.4%; viability, T/C [30]: 90.7% |

Source: PubChem BioAssay AID1919015 (Molecular Pharmacology Branch, DTP, NCI, 2023)
